In the supplement of paper PMC11061612:

What was measured:
SN-38 = compound: CCc1c2c(nc3ccc(O)cc13)-c1cc3c(c(=O)n1C2)COC(=O)[C@]3(O)CC [SN-38]; settings: max 0.3 µM
Outline: (§1)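 Viability was measured with CellTiter-Glo 2.0 luminescence after 72 hours of dosing at a final DMSO of typically 0.2%, and scaled between blank-well and DMSO-well means. Beforehand, cancer cell lines sat 24 hours at 37°C and 5% CO2 in 1536-well plates in 7.5 μl DMEM/F12 or RPMI with 10% FBS. A non-linear mixed effects model fitted two-parameter logistic curves to the dose responses. The single-agent IC50 comes from these fits.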

Savolitinib = compound: C[C@@H](c1ccc2nccn2c1)n1nnc2ncc(-c3cnn(C)c3)nc21 [Savolitinib]; settings: max 1 µM
Outline: as §1

AZD1390 = compound: CC(C)n1c(=O)n(C)c2cnc3cc(F)c(-c4ccc(OCCCN5CCCCC5)nc4)cc3c21 [AZD1390]; settings: max 0.3 µM
Outline: as §1

AZD8186 = compound: C[C@@H](Nc1cc(F)cc(F)c1)c1cc(C(=O)N(C)C)cc2c(=O)cc(N3CCOCC3)oc12 [AZD8186]; settings: max 3 µM
Outline: as §1

Olaparib = compound: O=C(c1cc(Cc2n[nH]c(=O)c3ccccc23)ccc1F)N1CCN(C(=O)C2CC2)CC1 [Olaparib]; settings: max 10 µM
Outline: as §1

AZD5153 = compound: COc1nnc2ccc(N3CCC(c4ccc(OCCN5CCN(C)C(=O)[C@H]5C)cc4)CC3)nn12 [AZD5153]; settings: max 1 µM
Outline: as §1

Lapatinib = compound: CS(=O)(=O)CCNCc1ccc(-c2ccc3ncnc(Nc4ccc(OCc5cccc(F)c5)c(Cl)c4)c3c2)o1 [Lapatinib]; settings: max 10 µM
Outline: as §1

Taselisib = compound: Cc1nc(-c2cn3c(n2)-c2ccc(-c4cnn(C(C)(C)C(N)=O)c4)cc2OCC3)n(C(C)C)n1 [Taselisib]; settings: max 10 µM
Outline: as §1

Crizotinib = compound: C[C@@H](Oc1cc(-c2cnn(C3CCNCC3)c2)cnc1N)c1c(Cl)ccc(F)c1Cl [Crizotinib]; settings: max 10 µM
Outline: as §1

Trametinib = compound: CC(=O)Nc1cccc(-n2c(=O)n(C3CC3)c(=O)c3c(Nc4ccc(I)cc4F)n(C)c(=O)c(C)c32)c1 [Trametinib]; settings: max 1 µM
Outline: as §1

Alisertib = compound: COc1cc(Nc2ncc3c(n2)-c2ccc(Cl)cc2C(c2c(F)cccc2OC)=NC3)ccc1C(=O)O [Alisertib]; settings: max 10 µM
Outline: as §1

Gefitinib = compound: COc1cc2ncnc(Nc3ccc(F)c(Cl)c3)c2cc1OCCCN1CCOCC1 [Gefitinib]; settings: max 10 µM
Outline: as §1

AZD4320 = compound: CN(CC[C@H](CSC1=CC=CC=C1)NC2=C(C=C(C=C2)S(=O)(=O)NC(=O)C3=CC=C(C=C3)N4CCC(CC4)[C@H](C5=CC=CC=C5C6=CC=C(C=C6)Cl)O)S(=O)(=O)C(F)(F)F)CCO [AZD4320]; settings: max 1 µM
Outline: as §1

AZD0156 = compound: CN(C)CCCOc1ccc(-c2ccc3ncc4c(c3c2)n(C2CCOCC2)c(=O)n4C)cn1 [AZD0156]; settings: max 3 µM
Outline: as §1

Capivasertib = compound: C1CN(CCC1(C(=O)N[C@@H](CCO)C2=CC=C(C=C2)Cl)N)C3=NC=NC4=C3C=CN4 [Capivasertib]; settings: max 10 µM
Outline: as §1

AZD7648 = compound: Cc1cc2ncnn2cc1Nc1ncc2c(n1)n(C1CCOCC1)c(=O)n2C [AZD7648]; settings: max 10 µM
Outline: as §1

AZD5991 = compound: Cc1c2c(nn1C)CSCc1cc(n(C)n1)CSc1cc(c3ccccc3c1)OCCCc1c(C(=O)O)n(C)c3c-2c(Cl)ccc13 [AZD5991]; settings: max 1 µM
Outline: as §1

AZD2811 = compound: CCN(CCO)CCCOc1ccc2c(Nc3cc(CC(=O)Nc4cccc(F)c4)[nH]n3)ncnc2c1 [AZD2811]; settings: max 1 µM
Outline: as §1

Prexasertib = compound: COc1cccc(OCCCN)c1-c1cc(Nc2cnc(C#N)cn2)n[nH]1 [Prexasertib]; settings: max 1 µM
Outline: as §1

AZD6738 = compound: C[C@@H]1COCCN1C2=NC(=NC(=C2)C3(CC3)[S@](=N)(=O)C)C4=C5C=CNC5=NC=C4 [AZD6738]; settings: max 10 µM
Outline: as §1

Venetoclax = compound: CC1(C)CCC(CN2CCN(c3ccc(C(=O)NS(=O)(=O)c4ccc(NCC5CCOCC5)c([N+](=O)[O-])c4)c(Oc4cnc5[nH]ccc5c4)c3)CC2)=C(c2ccc(Cl)cc2)C1 [Venetoclax]; settings: max 1 µM
Outline: as §1

Dasatinib = compound: CC1=C(C(=CC=C1)Cl)NC(=O)C2=CN=C(S2)NC3=CC(=NC(=N3)C)N4CCN(CC4)CCO [Dasatinib]; settings: max 2 µM
Outline: as §1

Palbociclib = compound: CC(=O)c1c(C)c2cnc(Nc3ccc(N4CCNCC4)cn3)nc2n(C2CCCC2)c1=O [Palbociclib]; settings: max 10 µM
Outline: as §1

SG3199 = compound: CC1=CN2[C@@H](C1)C=NC3=CC(=C(C=C3C2=O)OC)OCCCCCOC4=C(C=C5C(=C4)N=C[C@@H]6CC(=CN6C5=O)C)OC [SG3199]; settings: max 0.001 µM
Outline: as §1

Doxorubicin = compound: COc1cccc2c1C(=O)c1c(O)c3c(c(O)c1C2=O)C[C@@](O)(C(=O)CO)C[C@@H]3O[C@H]1C[C@H](N)[C@H](O)[C@H](C)O1 [Doxorubicin]; settings: max 1 µM
Outline: as §1

Selumetinib = compound: Cn1cnc2c(F)c(Nc3ccc(Br)cc3Cl)c(C(=O)NOCCO)cc21 [Selumetinib]; settings: max 10 µM
Outline: as §1

AZD1775 = compound: C=CCn1c(=O)c2cnc(Nc3ccc(N4CCN(C)CC4)cc3)nc2n1-c1cccc(C(C)(C)O)n1 [AZD1775]; settings: max 3 µM
Outline: as §1

| Cell Line | IC50, cell viability 72 h (SN-38) [µM] | IC50, cell viability 72 h (Savolitinib) [µM] | IC50, cell viability 72 h (AZD1390) [µM] | IC50, cell viability 72 h (AZD8186) [µM] | IC50, cell viability 72 h (Olaparib) [µM] | IC50, cell viability 72 h (AZD5153) [µM] | IC50, cell viability 72 h (Lapatinib) [µM] | IC50, cell viability 72 h (Taselisib) [µM] | IC50, cell viability 72 h (Crizotinib) [µM] | IC50, cell viability 72 h (Trametinib) [µM] | IC50, cell viability 72 h (Alisertib) [µM] | IC50, cell viability 72 h (Gefitinib) [µM] | IC50, cell viability 72 h (AZD4320) [µM] | IC50, cell viability 72 h (AZD0156) [µM] | IC50, cell viability 72 h (Capivasertib) [µM] | IC50, cell viability 72 h (AZD7648) [µM] | IC50, cell viability 72 h (AZD5991) [µM] | IC50, cell viability 72 h (AZD2811) [µM] | IC50, cell viability 72 h (Prexasertib) [µM] | IC50, cell viability 72 h (AZD6738) [µM] | IC50, cell viability 72 h (Venetoclax) [µM] | IC50, cell viability 72 h (Dasatinib) [µM] | IC50, cell viability 72 h (Palbociclib) [µM] | IC50, cell viability 72 h (SG3199) [µM] | IC50, cell viability 72 h (Doxorubicin) [µM] | IC50, cell viability 72 h (Selumetinib) [µM] | IC50, cell viability 72 h (AZD1775) [µM] |
| --- | --- | --- | --- | --- | --- | --- | --- | --- | --- | --- | --- | --- | --- | --- | --- | --- | --- | --- | --- | --- | --- | --- | --- | --- | --- | --- | --- |
| SF268 (Low Grade Glioma) | 0.0235 | > 1 | > 0.3 | > 3 | > 10 | > 1 | > 10 | > 10 | > 10 | > 1 | 7.28 | > 10 | > 1 | > 3 | > 10 | > 10 | > 1 | > 1 | 0.643 | > 10 | > 1 | > 2 | > 10 | > 0.001 | > 1 | > 10 | > 3 |
| RERF-LC-Sq1 (Squamous Cell Lung Carcinoma) | 0.167 | > 1 | > 0.3 | > 3 | > 10 | 0.768 | 2.64 | 0.427 | > 10 | 0.179 | > 10 | 3.12 | > 1 | > 3 | 1.6 | > 10 | > 1 | > 1 | 0.0366 | 4.11 | > 1 | > 2 | 6.6 | > 0.001 | 1 | > 10 | 0.681 |
| HCT-15 (Colorectal Carcinoma) | 0.0535 | > 1 | > 0.3 | > 3 | > 10 | 0.227 | > 10 | 3.86 | 7.41 | > 1 | 4.21 | > 10 | > 1 | > 3 | > 10 | > 10 | > 1 | > 1 | 0.139 | 4 | > 1 | 1.73 | > 10 | > 0.001 | 0.619 | > 10 | 0.544 |
| CAL-120 (Breast Carcinoma) | 0.296 | > 1 | > 0.3 | > 3 | > 10 | > 1 | > 10 | > 10 | > 10 | > 1 | > 10 | > 10 | 0.825 | > 3 | > 10 | > 10 | > 1 | > 1 | 0.656 | > 10 | > 1 | > 2 | > 10 | > 0.001 | > 1 | > 10 | 1.62 |
| GB-1 (Glioblastoma) | 0.0327 | > 1 | > 0.3 | > 3 | > 10 | > 1 | > 10 | 9.75 | > 10 | > 1 | > 10 | > 10 | > 1 | > 3 | > 10 | > 10 | > 1 | > 1 | 0.951 | > 10 | > 1 | > 2 | > 10 | > 0.001 | > 1 | > 10 | > 3 |
